Source: patent US20260097022A1, “COMPOUNDS AND USES THEREOF” (Integrated Biosciences, Inc., priority 2023, published 2026)

Test system: etoposide-treated IMR-90 cells
Test: Etoposide-induced senescence model, resazurin cell viability (screen and dose-response)
Assay type: cell-based, human
Conditions: etoposide-induced senescence model; ratio of IC50 values between etoposide- and DMSO-treated IMR-90 fibroblasts
Method in brief: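 IMR-90 fibroblasts made senescent with 50 μM etoposide for 2 days, then 4 days recovery before plating. Compounds at 10 μM or 1 μM final (screen) or three-fold dilutions (1% DMSO) for 3 days, then 0.15 mM resazurin 1 day, fluorescence 550/590 nm. Viability expressed as fraction of untreated controls; biological duplicates.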

SMILES	Therapeutic Index (TI)
COc1ccc(NC(=O)CSc2nc3ccc(NC(=O)c4ccc(C)cc4)cc3s2)cc1 [compound 115]	++ (compounds with a TI of 1 to 5 were labelled as ++)
O=C(CSc1nc2ccc(NC(=O)c3ccccc3F)cc2s1)NC1CC1 [compound 116]	++ (compounds with a TI of 1 to 5 were labelled as ++)
COc1ccc(NC(=O)CSc2nc3ccc(NC(=O)c4ccc(C(C)(C)C)cc4)cc3s2)cc1 [compound 117]	++ (compounds with a TI of 1 to 5 were labelled as ++)
Cc1cc(C)cc(NC(=O)CSc2nc3ccc(NC(=O)c4ccccc4C)cc3s2)c1 [compound 118]	++ (compounds with a TI of 1 to 5 were labelled as ++)
CCOc1ccc(C(=O)Nc2ccc3nc(SCC(=O)Nc4ccccc4)sc3c2)cc1 [compound 119]	++ (compounds with a TI of 1 to 5 were labelled as ++)
CCOc1ccc(C(=O)Nc2ccc3nc(SCC(=O)Nc4ccc(F)cc4)sc3c2)cc1 [compound 120]	++ (compounds with a TI of 1 to 5 were labelled as ++)
Cc1ccccc1C(=O)Nc1ccc2nc(SCC(=O)Nc3ccc(Br)cc3)sc2c1 [compound 121]	++ (compounds with a TI of 1 to 5 were labelled as ++)
O=C(CSc1nc2ccc(NC(=O)c3ccc(F)cc3)cc2s1)Nc1ccccc1 [compound 122]	++ (compounds with a TI of 1 to 5 were labelled as ++)
CCc1ccc(NC(=O)CSc2nc3ccc(NC(=O)c4ccccc4OC)cc3s2)cc1 [compound 123]	++ (compounds with a TI of 1 to 5 were labelled as ++)
CCCCOc1ccc(C(=O)Nc2ccc3nc(SCC(=O)Nc4ccc(CC)cc4)sc3c2)cc1 [compound 124]	++ (compounds with a TI of 1 to 5 were labelled as ++)
Cc1ccccc1C(=O)Nc1ccc2nc(SCC(=O)N(C)c3ccccc3)sc2c1 [compound 125]	++ (compounds with a TI of 1 to 5 were labelled as ++)
CCCCOc1ccc(NC(=O)CSc2nc3ccc(NC(=O)c4cccc(C)c4)cc3s2)cc1 [compound 126]	++ (compounds with a TI of 1 to 5 were labelled as ++)
O=C(CSc1nc2ccc(NC(=O)c3ccccc3Br)cc2s1)Nc1ccccc1 [compound 127]	++ (compounds with a TI of 1 to 5 were labelled as ++)
O=C(CSc1nc2ccc(NC(=O)c3ccccc3)cc2s1)Nc1ccccc1C(F)(F)F [compound 128]	++ (compounds with a TI of 1 to 5 were labelled as ++)
CCCCOc1ccc(NC(=O)CSc2nc3ccc(NC(=O)c4ccc(Cl)cc4Cl)cc3s2)cc1 [compound 129]	++ (compounds with a TI of 1 to 5 were labelled as ++)
COc1ccccc1C(=O)Nc1ccc2nc(SCC(=O)Nc3ccccc3C)sc2c1 [compound 130]	++ (compounds with a TI of 1 to 5 were labelled as ++)
COc1ccc(Cl)cc1NC(=O)CSc1nc2ccc(NC(=O)c3ccc(C)cc3)cc2s1 [compound 131]	++ (compounds with a TI of 1 to 5 were labelled as ++)
O=C(Nc1ccc2nc(SCC(=O)N3CCc4ccccc43)sc2c1)c1ccccc1Cl [compound 132]	++ (compounds with a TI of 1 to 5 were labelled as ++)
CC(=O)Nc1ccc(NC(=O)CSc2nc3ccc(NC(=O)c4ccc(C)cc4)cc3s2)cc1 [compound 133]	++ (compounds with a TI of 1 to 5 were labelled as ++)

SMILES	Therapeutic Index (TI)
CCc1ccc(NC(=O)CSc2nc3ccc(NC(=O)c4ccccc4)cc3s2)cc1 [compound 134]	++ (compounds with a TI of 1 to 5 were labelled as ++)
CC(=O)Nc1ccc(NC(=O)CSc2nc3ccc(NC(=O)c4ccccc4)cc3s2)cc1 [compound 135]	++ (compounds with a TI of 1 to 5 were labelled as ++)
Cc1cccc(NC(=O)CSc2nc3ccc(NC(=O)c4cccc(C)c4)cc3s2)c1 [compound 136]	++ (compounds with a TI of 1 to 5 were labelled as ++)
O=C(CSc1nc2ccc(NC(=O)c3ccccc3)cc2s1)Nc1ccc(Br)cc1 [compound 137]	++ (compounds with a TI of 1 to 5 were labelled as ++)
CC(=O)c1ccc(NC(=O)CSc2nc3ccc(NC(=O)c4cccc(C)c4)cc3s2)cc1 [compound 138]	++ (compounds with a TI of 1 to 5 were labelled as ++)
Cc1cc(C)c(NC(=O)C(C)Sc2nc3ccc(NC(=O)c4ccccc4)cc3s2)c(C)c1 (stereo not drawn) [compound 139]	++ (compounds with a TI of 1 to 5 were labelled as ++)
O=C(CSc1nc2ccc(NC(=O)c3ccccc3)cc2s1)Nc1ccc(F)cc1 [compound 140]	++ (compounds with a TI of 1 to 5 were labelled as ++)
Cc1ccc(NC(=O)CSc2nc3ccc(NC(=O)c4ccccc4C)cc3s2)cc1 [compound 141]	++ (compounds with a TI of 1 to 5 were labelled as ++)
O=C(CSc1nc2ccc(NC(=O)c3ccccc3)cc2s1)Nc1ccccc1 [compound 142]	+ (Compounds with a TI of <1 were labelled as +)
Cc1ccc(NC(=O)CSc2nc3ccc(NC(=O)c4ccccc4F)cc3s2)cc1Cl [compound 143]	+ (Compounds with a TI of <1 were labelled as +)
Cc1cc(C)c(NC(=O)C(C)Sc2nc3ccc(NC(=O)c4ccccc4C)cc3s2)c(C)c1 (stereo not drawn) [compound 144]	+ (Compounds with a TI of <1 were labelled as +)
Cc1ccc(NC(=O)CSc2nc3ccc(NC(=O)c4ccc(C)cc4)cc3s2)cc1 [compound 145]	+ (Compounds with a TI of <1 were labelled as +)
CN(C(=O)CSc1nc2ccc(NC(=O)c3ccccc3)cc2s1)c1ccccc1 [compound 146]	+ (Compounds with a TI of <1 were labelled as +)
COc1ccccc1C(=O)Nc1ccc2nc(SCC(=O)Nc3cc(C)cc(C)c3)sc2c1 [compound 147]	+ (Compounds with a TI of <1 were labelled as +)
CCCCOc1ccc(NC(=O)CSc2nc3ccc(NC(=O)c4ccccc4Cl)cc3s2)cc1 [compound 148]	+ (Compounds with a TI of <1 were labelled as +)
CCCCCCCCCCOc1ccc(C(=O)Nc2ccc3nc(SCC(=O)Nc4ccccc4)sc3c2)cc1 [compound 149]	+ (Compounds with a TI of <1 were labelled as +)
Cc1cccc(NC(=O)CSc2nc3ccc(NC(=O)c4ccccc4)cc3s2)c1C [compound 150]	+ (Compounds with a TI of <1 were labelled as +)
Cc1ccccc1C(=O)Nc1ccc2nc(SCC(=O)Nc3ccc(C(C)C)cc3)sc2c1 [compound 151]	+ (Compounds with a TI of <1 were labelled as +)
Cc1ccccc1NC(=O)CSc1nc2ccc(NC(=O)c3ccccc3C)cc2s1 [compound 152]	+ (Compounds with a TI of <1 were labelled as +)

SMILES	Therapeutic Index (TI)
COc1cccc(NC(=O)CSc2nc3ccc(NC(=O)c4ccccc4)cc3s2)c1 [compound 153]	+ (Compounds with a TI of <1 were labelled as +)
CC(=O)c1ccc(NC(=O)CSc2nc3ccc(NC(=O)c4ccc(C)cc4)cc3s2)cc1 [compound 154]	+ (Compounds with a TI of <1 were labelled as +)
COc1ccccc1C(=O)Nc1ccc2nc(SCC(=O)Nc3ccc(C(C)C)cc3)sc2c1 [compound 155]	+ (Compounds with a TI of <1 were labelled as +)
COc1ccc(C(=O)Nc2ccc3nc(SCC(=O)N(C)c4ccccc4)sc3c2)cc1 [compound 156]	+ (Compounds with a TI of <1 were labelled as +)
CC(=O)c1ccc(NC(=O)CSc2nc3ccc(NC(=O)c4ccccc4)cc3s2)cc1 [compound 157]	+ (Compounds with a TI of <1 were labelled as +)
COc1cccc(NC(=O)CSc2nc3ccc(NC(=O)c4ccccc4C)cc3s2)c1 [compound 158]	+ (Compounds with a TI of <1 were labelled as +)
Cc1cccc(NC(=O)CSc2nc3ccc(NC(=O)c4ccccc4C)cc3s2)c1 [compound 159]	+ (Compounds with a TI of <1 were labelled as +)
COc1ccccc1C(=O)Nc1ccc2nc(SCC(=O)Nc3cc(Cl)ccc3C)sc2c1 [compound 160]	+ (Compounds with a TI of <1 were labelled as +)
COc1ccc(CNC(=O)CSc2nc3ccc(NC(=O)c4ccccc4C)cc3s2)cc1 [compound 161]	+ (Compounds with a TI of <1 were labelled as +)
COc1ccc(C(=O)Nc2ccc3nc(SCC(=O)N4CCOCC4)sc3c2)cc1OC [compound 162]	+ (Compounds with a TI of <1 were labelled as +)
COc1ccccc1NC(=O)CSc1nc2ccc(NC(=O)c3ccccc3C)cc2s1 [compound 163]	+ (Compounds with a TI of <1 were labelled as +)
CC(=O)c1ccc(NC(=O)CSc2nc3ccc(NC(=O)c4ccccc4C)cc3s2)cc1 [compound 164]	+ (Compounds with a TI of <1 were labelled as +)
COc1cccc(C(=O)Nc2ccc3nc(SCC(=O)Nc4ccccc4C)sc3c2)c1 [compound 165]	+ (Compounds with a TI of <1 were labelled as +)
CCOc1ccc(NC(=O)CSc2nc3ccc(NC(=O)c4ccccc4)cc3s2)cc1 [compound 166]	+ (Compounds with a TI of <1 were labelled as +)
COc1ccccc1NC(=O)CSc1nc2ccc(NC(=O)c3ccccc3)cc2s1 [compound 167]	+ (Compounds with a TI of <1 were labelled as +)
COc1ccccc1C(=O)Nc1ccc2nc(SCC(=O)Nc3ccc(C)cc3C)sc2c1 [compound 168]	+ (Compounds with a TI of <1 were labelled as +)
COC(=O)c1ccc(NC(=O)CSc2nc3ccc(NC(=O)c4ccc(C)cc4)cc3s2)cc1 [compound 169]	+ (Compounds with a TI of <1 were labelled as +)
COc1ccccc1C(=O)Nc1ccc2nc(SCC(=O)Nc3ccccc3Cl)sc2c1 [compound 170]	+ (Compounds with a TI of <1 were labelled as +)
O=C(CSc1nc2ccc(NC(=O)c3ccc(CO)c(F)c3)cc2s1)Nc1ccc(F)cc1 [compound 171]	+++ (compounds with a TI of >5 were labeled as +++)
